Measurements as given in ChEMBL document CHEMBL5321233, “Biological activity of 1,2,3-triazole-2-amino-1,4-naphthoquinone derivatives and their evaluation as therapeutic strategy for malaria control” (Eur J Med Chem, 2023).
Activity calls are given as the source filed them. The calls are words filed in the database; no cut-off is given here.

How the values were obtained:
[1] = Acute toxicity in Albino Swiss mouse assessed as signs of pallor at 300 mg/kg, po administered as single dose measured after 14 days; assay type: organism-based; settings: in vivo, 336 h, time 14 day
[2] = Toxicity in Albino Swiss mouse infected with Plasmodium berghei ANKA assessed as mortality rate at 30 mg/kg, po administered for 4 consecutive days measured for 14 days relative to control; assay type: organism-based; settings: in vivo, time 14 day, read-out: Activity
[3] = Acute toxicity in Albino Swiss mouse assessed as behavioural toxicity at 300 mg/kg, po administered as single dose measured after 14 days; assay type: organism-based; settings: in vivo, 336 h, time 14 day
[4] = Acute toxicity in Albino Swiss mouse assessed as change in relative weight of spleen at 300 mg/kg, po administered as single dose measured after 14 days; assay type: organism-based; settings: in vivo, 336 h, time 14 day
[5] = Acute toxicity in Albino Swiss mouse assessed as change in diarrhea at 300 mg/kg, po administered as single dose measured after 14 days; assay type: organism-based; settings: in vivo, 336 h, time 14 day
[6] = Hemolytic activity in human red blood cells assessed as hemoglobin release at 250 to 15.6 uM incubated for 60 mins by spectrophotometry; assay type: toxicity, cell-based, Erythrocyte; settings: dose 250-15.6 µM, read-out: Activity
[7] = Acute toxicity in Albino Swiss mouse assessed as change in defecation at 300 mg/kg, po administered as single dose measured after 14 days; assay type: organism-based; settings: in vivo, 336 h, time 14 day
[8] = Acute toxicity in Albino Swiss mouse assessed as change in sensory function at 300 mg/kg, po administered as single dose measured after 14 days; assay type: organism-based; settings: in vivo, 336 h, time 14 day
[9] = Acute toxicity in Albino Swiss mouse assessed as signs of toxicity at 300 mg/kg, po administered as single dose measured after 14 days; assay type: organism-based; settings: in vivo, 336 h, time 14 day
Plasmodium falciparum [10] = experiment: Induction of morphological changes in chloroquine-resistant Plasmodium falciparum W2 trophozoites assessed as dense cytoplasm with undefined organelles by TEM analysis; assay type: functional, organism-based
[11] = Acute toxicity in Albino Swiss mouse assessed as macroscopic alterations in liver at 300 mg/kg, po administered as single dose measured after 14 days by H and E staining based analysis; assay type: organism-based; settings: in vivo, 336 h, time 14 day
[12] = Acute toxicity in Albino Swiss mouse assessed as change in relative weight of kidney at 300 mg/kg, po administered as single dose measured after 14 days; assay type: organism-based; settings: in vivo, 336 h, time 14 day
Plasmodium berghei [13] = experiment: Antimalarial activity against Plasmodium berghei ANKA infected in Albino Swiss mouse assessed as reduction in parasitemia at 30 mg/kg, po administered for 4 consecutive days measured after day 7 relative to control; assay type: functional; design: scale not given: the % may be the effect or the level left; settings: time 7 day
[14] = Cytotoxicity against African green monkey Vero cells incubated for 24 hrs by MTT assay; assay type: toxicity, cell-based; settings: chlorocebus sabaeus
[15] = Acute toxicity in Albino Swiss mouse assessed as pathological damage in spleen at 300 mg/kg, po administered as single dose measured after 14 days by H and E staining based analysis; assay type: organism-based; settings: in vivo, 336 h, time 14 day
[16] = Acute toxicity in Albino Swiss mouse assessed as change in motor function at 300 mg/kg, po administered as single dose measured after 14 days; assay type: organism-based; settings: in vivo, 336 h, time 14 day
[17] = Acute toxicity in Albino Swiss mouse assessed as pathological changes in kidney at 300 mg/kg, po administered as single dose measured after 14 days by H and E staining based analysis; assay type: organism-based; settings: in vivo, 336 h, time 14 day
Plasmodium falciparum [18] = experiment: Induction of morphological changes in chloroquine-resistant Plasmodium falciparum W2 trophozoites assessed as degraded cytoplasm by TEM analysis relative to control; assay type: functional
[19] = Selectivity index, ratio of CC50 for African green monkey Vero cells to IC50 for chloroquine-resistant Plasmodium falciparum W2 infected in human erythrocytes; assay type: toxicity, cell-based; settings: read-out: Ratio CC50/IC50
[20] = Acute toxicity in Albino Swiss mouse assessed as animal mortality at 300 mg/kg, po administered as single dose measured after 14 days; assay type: organism-based; settings: in vivo, 336 h, time 14 day
Plasmodium falciparum [21] = experiment: Induction of morphological changes in chloroquine-resistant Plasmodium falciparum W2 trophozoites assessed as loss of membrane integrity by TEM analysis; assay type: functional, organism-based
[22] = Acute toxicity in Albino Swiss mouse assessed as change in relative weight of liver at 300 mg/kg, po administered as single dose measured after 14 days; assay type: organism-based; settings: in vivo, 336 h, time 14 day
HepG2 = experiment: Cytotoxicity against human HepG2 cells incubated for 24 hrs by MTT assay; assay type: functional
Plasmodium falciparum [23] = experiment: Antimalarial activity against chloroquine-resistant Plasmodium falciparum W2 infected in human erythrocytes assessed as parasite growth inhibition incubated for 48 hrs by geimsa staining based microscopy; assay type: functional, organism-based; settings: W2, Erythrocyte
[24] = Acute toxicity in Albino Swiss mouse assessed as aggressiveness at 300 mg/kg, po administered as single dose measured after 14 days; assay type: organism-based; settings: in vivo, 336 h, time 14 day
Plasmodium berghei [25] = experiment: Antimalarial activity against Plasmodium berghei ANKA infected in Albino Swiss mouse assessed as half-survival time at 30 mg/kg, po administered for 4 consecutive days measured for 30 days (reference value: 16 day); assay type: functional; settings: time 30 day
[26] = Acute toxicity in Albino Swiss mouse assessed as change in urine color at 300 mg/kg, po administered as single dose measured after 14 days; assay type: organism-based; settings: in vivo, 336 h, time 14 day
[27] = Octanol-water partition coefficient, logP of the compound; assay type: physicochemical
[28] = Acute toxicity in Albino Swiss mouse assessed as signs of hyperemia at 300 mg/kg, po administered as single dose measured after 14 days; assay type: organism-based; settings: in vivo, 336 h, time 14 day
Plasmodium falciparum [29] = experiment: Induction of morphological changes in chloroquine-resistant Plasmodium falciparum W2 trophozoites assessed as deteriorated food vacuole by TEM analysis; assay type: functional, organism-based
[30] = Acute toxicity in Albino Swiss mouse assessed as signs of cyanosis at 300 mg/kg, po administered as single dose measured after 14 days; assay type: organism-based; settings: in vivo, 336 h, time 14 day
[31] = Hemolytic activity in human red blood cells type A assessed as hemoglobin release at 500 to 1000 uM incubated for 60 mins by spectrophotometry; assay type: toxicity, cell-based, Erythrocyte; settings: dose 500-1000 µM, read-out: Activity
[32] = Acute toxicity in Albino Swiss mouse assessed as pathological lesions in liver at 300 mg/kg, po administered as single dose measured after 14 days by H and E staining based analysis; assay type: organism-based; settings: in vivo, 336 h, time 14 day
[33] = Acute toxicity in Albino Swiss mouse assessed as change in urination volume at 300 mg/kg, po administered as single dose measured after 14 days; assay type: organism-based; settings: in vivo, 336 h, time 14 day
[34] = Acute toxicity in Albino Swiss mouse assessed as escape reaction at 300 mg/kg, po administered as single dose measured after 14 days; assay type: organism-based; settings: in vivo, 336 h, time 14 day
[35] = Acute toxicity in Albino Swiss mouse assessed as contortions at 300 mg/kg, po administered as single dose measured after 14 days; assay type: organism-based; settings: in vivo, 336 h, time 14 day
[36] = Selectivity index, ratio of CC50 for human HepG2 cells to IC50 for chloroquine-resistant Plasmodium falciparum W2 infected in human erythrocytes; assay type: toxicity, cell-based; settings: read-out: Ratio CC50/IC50

## COc1ccc(-c2cn(CCNC3=CC(=O)c4ccccc4C3=O)nn2)cc1
[1]
  Activity: Non-Toxic
[2]
  mortality at 336 h: 20%
[3]
  Activity: Non-Toxic
[4]
  Activity: Non-Toxic
[5]
  Activity: Non-Toxic
[6]
  hemolysis at 1 h: < 40%
[7]
  Activity: Non-Toxic
[8]
  Activity: Non-Toxic
[9]
  Activity: Non-Toxic
Plasmodium falciparum [10]
  Activity: Active
[11]
  Activity: Non-Toxic
[12]
  Activity: Non-Toxic
Plasmodium berghei [13]
  Activity: 33%
[14]
  CC50 at 24 h: 401 µM
[15]
  Activity: Non-Toxic
[16]
  Activity: Non-Toxic
[17]
  Activity: Non-Toxic
Plasmodium falciparum [18]
  Activity: 100%
[19]
  selectivity ratio: 95.8
[20]
  Activity: Non-Toxic
Plasmodium falciparum [21]
  Activity: Active
[22]
  Activity: Non-Toxic
HepG2
  CC50: 289 µM
Plasmodium falciparum [23]
  IC50: 4.2 µM
[24]
  Activity: Non-Toxic
Plasmodium berghei [25]
  Survival: 26 days
[26]
  Activity: Non-Toxic
[27]
  logP: 2.72
[28]
  Activity: Non-Toxic
Plasmodium falciparum [29]
  Activity: Active
[30]
  Activity: Non-Toxic
[31]
  hemolysis at 1 h, up to 1000 µM: > 40%
[32]
  Activity: Toxic
[33]
  Activity: Non-Toxic
[34]
  Activity: Non-Toxic
[35]
  Activity: Non-Toxic
[36]
  selectivity ratio: 68.8
